According to patent US20230320986A1, “TARGETED ANT[…] SYSTEM FOR CANCER TREATMENT” (priority 2020, published 2023):

Experiments:
M21 cells = assay: Cytotoxicity in cultured cells; format: cell-based, human; settings: 25 µM drug, 30 min treatment
Protocol: (§1) For assessment of the UTO cytotoxicity the cytotoxicity of RPAR-UTO-PS, UTO-PS, PS, free UTO, and free DOX in cultured PPC-1 (FIG. 4) and M21 (FIG. 5) cells after 30 min treatment over a range of drug concentrations was tested.

PPC-1 cells = assay: Cytotoxicity in cultured cells; format: cell-based, human; settings: 30 min treatment
Protocol: as §1

[1] = Cumulative drug release from polymersomes; format: physicochemical; settings: after 48 h, 37° C., PBS
Protocol: To further evaluate the UTO and DOX cumulative release behavior from polymersomes, UTO-and DOX-loaded PS were incubated at 37° C. in PBS (0.25 mL) for different time periods (0; 1; 4; 24; and 48 h). The samples were centrifuged using Amicon Ultra centrifugal filters (MWCO 100 kDa) for 20 min at 6,000 g at RT. The fluorescence of the filtrates was measured at 485 nm/535 nm (0.1 s) using a Victor X5 Multilabel Microplate Reader (Perkin Elmer, USA) to quantify the released drug amount.

[2] = Encapsulation efficiency in polymersomes (section 3.2); format: physicochemical; settings: thin-film hydration, after size exclusion chromatography
Protocol: For the encapsulation of the drug inside PS, 50 nmols of drug were dissolved in 100 µL of acetone and added to the polymers dissolved in acetone (total amount of polymer was 5 mg). The acetone was evaporated to form the polymer/drug film and the PS were formed as described above.
PS were purified by size exclusion chromatography. Agarose beads with a diameter of 45-165 µm ([…] 4B gel) were used as stationary phase. The height of the Sephadex gel in a column was 8 cm (volume 25.13 mL). The PS sample was eluted with PBS pH 7.4.
The amount of encapsulated drug was quantified using a Nanodrop 2000c UV-VIS spectrophotometer (Thermo Scientific, USA). For drug quantification, serial dilutions of drug in MeOH:water 1:1 were prepared and the absorbance at 490 nm was measured. Using gathered data, the linear trend line was constructed in MS Excel program and the formula was further used to evaluate the concentration of drug inside PS.
For assessment of the UTO encapsulation efficiency the above depicted anthracycline derivative was encapsulated in a PS using a thin-film hydration method. After encapsulation the sample was purified by size exclusion chromatography to remove non-encapsulated drug. […]

[3] = Encapsulation efficiency, comparison PS-UTO vs. PS-DOX (section 4); format: physicochemical; settings: PEG-PCL-PS
Protocol: Polymersomes were prepared by dissolving 5 mg of PEG-PCL in 0.3 mL acetone. The acetone was evaporated with nitrogen flow forming a thin polymeric film on the wall of the glass vial. The film was hydrated with 0.5 mL of PBS pH 7.4 previously purged with nitrogen flow, heated for 30 seconds in a 65° C. water bath, and sonicated for 30 seconds. The heating and sonication steps were repeated until the PS were formed and polymer aggregates were not observed in the suspension. The final volume of PS samples was 0.5 mL and the total polymer concentration 10 mg/mL.
For the PS encapsulation of UTO […] of UTO were dissolved in 100 µL of acetone (0.5 mM concentration) and added to the polymers dissolved in acetone (total amount of polymer - 5 mg, UTO concentration 0.125 mM). The acetone was evaporated to form the polymer/drug film and the PS were formed as described above.
For DOX encapsulation the polymeric film was hydrated with 2 mM DOX solution in PBS pH 7.4 and the PS were formed as described above. […]
The UTO and DOX PS-encapsulated amounts were quantified using UV-VIS spectrometry (Thermo Scientific, USA). For UTO quantification, serial dilutions of UTO in MeOH:water 1:1 were prepared and the absorbance at 485 nm was used for calibration. For DOX quantification, serial dilutions of DOX in PBS were prepared and also the absorbance at 485 nm was measured. […]

**Q.** Which results are given for `CC(=O)OCOC(=O)N1CO[C@@H]2[C@H](C)O[C@@H](O[C@H]3C[C@](N)(C(C)O)Cc4c(O)c5c(c(O)c43)C(=O)c3ccccc3C5=O)C[C@@H]21` (some centres unmarked) [UTO]?
**A.** viability at 25 µM (M21 cells; Homo sapiens, 0.5 h, read-out: cell viability): 15%; viability at 2.5 µM (PPC-1 cells; Homo sapiens, 0.5 h, 2.5 µM drug, read-out: cell viability): 68%; viability at 25 µM (PPC-1 cells; Homo sapiens, 0.5 h, 25 µM drug, read-out: cell viability): 14%; drug released from the PS [1]: less than 3%

**Q.** Which results are given for `COc1cccc2c1C(=O)c1c(O)c3c(c(O)c1C2=O)C[C@@](O)(C(=O)CO)C[C@@H]3O[C@H]1C[C@H](N)[C@H](O)[C@H](C)O1` [DOX, doxorubicin]?
**A.** cell viability (M21 cells): 58%; cell viability (PPC-1 cells; 2.5 µM drug): 87%; cell viability (PPC-1 cells; 25 µM drug): 56%; encapsulation efficiency (EE) [2]: 1%; drug released from the PS [1]: approximately 10%; encapsulation efficiency, times lower compared to UTO [3]: approximately 20 times; encapsulation efficiency (EE) ([3]; film hydration, after purification): 2.3%
